Source: patent US5011828A, “Immunostimulating guanine derivatives, compositions and methods” (priority 1988, dated 1991)
≈ marks a conversion by molar mass, not a printed value.

Key:
CBA/N mouse spleen cells = experiment: In vitro reconstitution of primary humoral immune response to SRBC, immunodeficient CBA/N spleen cells (FIG. 2); type: cell-based
From the text: (§1) FIG. 2 is a graph that illustrates the in vitro reconstitution of the primary humoral immune response to a specific antigen, SRBC, in cultured immunodeficient CBA/N mouse spleen cells (dotted line) obtained by contacting those cells with an aqueous composition containing 7a8oGuo, in the further presence of SRBC. A similar study using spleen cells from immunocompetent CBA/CaJ mice (solid line) is also shown in the graph for comparison. The points on each line represent the PFC value obtained in the presence of the indicated amount of 7a8oGuo plus SRBC. The ordinate and abscissa are as in FIG. 1. Further details of this study are provided hereinafter.
(§2) Cultures of spleen cells from male and female homzygous CBA/N and male mice heterozygous for the CBA/N gene, called the xid gene, (male mice bear the X chromosome) was prepared as described in the Materials and Methods Section. 0.1 Milliters of a 0.1 percent (v/v) SRBC suspension alone or the SRBC suspension plus incremental amounts of 7a8oGuo were added to the cultures, using 5×10^6 cells/ml. Direct anti-SRBC […] per culture were assessed after 4 days of culture.

[1] = tested on: human peripheral blood lymphocytes (sheep red blood cells as antigen); experiment: Antigen-specific adjuvanticity: direct anti-SRBC plaque forming cells, human system; type: cell-based
Experimental: ^1 Studies were carried in a manner similar to those of Table 1,
except that a human lymphocyte preparation was used.
The results shown in Table 7, below, were obtained similarly to those discussed above, but using human lymphocytes. Some of those studies utilized lymphocytes from more than one individual, and are therefore reported with multiple entries.
Human peripheral blood lymphocytes (PBL) were prepared from normal heparinized venous blood by Ficoll-diatrizoate density gradient centrifugation. PBL were depleted of suppressor T cells bearing the histamine type 2 receptor by adhering them to the surfaces of histamine-rabbit serum albumin-coated plastic petri dishes (Cell-ect No. 2 kit; Seragen, Boston, Mass.) and by recovering the nonadherent cells by panning as described by Wysocki and Sato, Proc. Natl. Acad. Sci. USA, 75:2844 (1978) and modified by Cavagnaro and Osband, Biotechniques, January/February:30 (1983).
The tissue culture medium employed in these studies for human lymphocytes was prepared as follows: One hundred milliliters (ml) contained 87.9 ml RPMI 1640 (Flow Laboratories, Rockville, Md.), 0.1 ml 100×glutamine,1.0 ml of 1.0 M HEPES buffer (Microbilogical Associates, Betheseda, Md.), 1.0 ml of water containing 10^4 U of penicillin G and 10^4 micrograms of streptomycin, and 10 ml of fresh autologous heat-inactivatedplasma. For evaluation of the primary humoral immune response to SRBC, lymphoid cells prepared as above were cultured at a density of 2×10^6 /ml in a volume of 1.0 ml containing 5×10^6 SRBC as antigen (Colorado Serum Co., Denver, Colo.) together with IL-2 (a partially purified preparation of human IL-2 that was free of interferon-gamma activity was obtained from Electro-Nucleonics, Inc., Silver Spring, Md.) and the guanine nucleoside derivative.
(§3) Assay of plaque forming cells (PFC). PFC secreting antibodies against SRBC were evaluated after 4 or 5 days of culture using a modification of the hemolytic plaque assay of Jerne and Nordin, Science, 140:405 (1963). The cells were brought up in complete medium before plaquing; they were plaqued in standard low Mr agarose (Bio-Rad Laboratories, Richmond Calif.), and were incubated in SRBC-absorbed guinea pig complement for one hour after a 1.5 hour incubation without complement.

[2] = tested on: CBA/CaJ mouse spleen cells; experiment: Primary humoral response to SRBC, immunocompetent CBA/CaJ spleen cells (comparison in FIG. 2); type: cell-based
From the text: as §1, §2
The results of this study comparing cells from CBA/N mice with a preparation of spleen cells from CBA/CaJ mice, are shown in FIG. 2.

physchem = type: physicochemical, human
From the text: Solubilities in urine could be expected to be lower than those for water due to the relatively higher salt content in urine than is found in water.
Each sample was filtered through a 5 micron pore-sized filter, diluted as necessary with the HPLC mobile phase, and then quantified by HPLC.

[3] = tested on: CBA/CaJ thymocytes (irradiated BDF1 splenocyte stimulators); experiment: T cell proliferation in mixed leukocyte cultures, CBA/CaJ thymocytes; type: cell-based, mouse; settings: Study 4, responder +, stimulator +
From the text: A third and fourth study utilized thymocytes from CBA/CaJ mice as the stimulated (responder) cells, and irradiated BDFl mouse spleen cells as the stimulator cells. Two guanosine derivatives of the present invention, 7a8MGuo and 7a8oGuo, were used for these studies, with 8MGuo serving as positive control for one of the studies.
However, in the presence of interleukin-2 (IL-2), those cells develop responsiveness to allogeneic stimulation. The present studies utilizing thymocytes were therefore carried out in the presence of a co-stimulating amount of IL-2.
^1 Plus signs (+) are utilized to indicate the presence of the
^3 Allogeneic cells used to costimulate proliferation, after exposure
T Helper Cell Activation. 1.5×10^5 viable spleen cells from SJL mice or CBA/CaJ mouse thymocytes were cultured with or without an equal number of irradiated (2500 rads) spleen cells from CBA/CaJ or BDFl mice respectively, in 0.2 ml of culture medium in the presence of incremental concentrations of the exemplary 7,8-disubstituted guanine derivatives. The lymphocyte culture medium utilized was that described before, and was further supplemented with 2-mercaptoethanol to a final concentration of 50 uM. Thymocyte cultures also contained 10 percent (v/v) of a concanavalin A-conditioned rat spleen cell medium sold under the name Rat T Cell Monoclone by Collaborative Research. Following 90 hours of culture, one microCurie [^3 H]TdR per culture was admixed, and the resulting culture was maintained for a further six hour time period.
The cultures were harvested with a Brandel cell harvester (M24V, Biological Research and Development Laboratories, Rockville, Md.) onto glass fiber filter disks. Filter disks were transferred to plastic scintillation vials, covered with liquid scintillation cocktail, and counted in a Beckman LS5700 liquid scintillation counter.

[4] = tested on: murine lymphocytes (sheep red blood cells as antigen); experiment: Antigen-specific adjuvanticity: direct anti-SRBC plaque forming cells, murine system; type: cell-based, mouse
From the text: ^1 Adjuvanticities against sheep red blood cells [SRBC] measured in
direct plaqueforming cells per culture of lymphocytes from the mouse
strains shown. Details of the procedure are provided in the Materials and
Methods Section. Standard errors from the enumerated mean values are show
A large number of comparisons of adjuvanticity using human and murine lymphocytes as the source of leukocytes have been carried out using compounds of the present invention, as well as with new compounds excluded from the present invention. […] Interstudy comparisons are however useful for showing trends and large differences. Tables 5, 6 and 7, hereinafter, provide exemplary data from such studies in which only the activity at the peak concentration is shown for each compound and the results for the controls are omitted.
Lymphocyte cultures. The serum-containing culture medium water prepared to contain the following per 100 milliliters: 91.9 milliliters RPMI 1640 (Flow Laboratories, Inc., Rockville, Md.), 0.1 milliliters of 100×glutamine, 1.0 milliliter of 100×sodium pyruvate, 1 0 milliliter of 50×nonessential amino acids, 1.0 milliliter of water containing 10^4 units of penicillin G and 10^4 micrograms of streptomycin, and 5.0 milliliters of a supportive lot of fetal calf serum (FCS). These ingredients were admixed to apparent homogeneity. Spleen cell suspensions and populations enriched for splenic B cells were prepared as described in Goodman et al., J. Immunol., 121:1905 (1978).
For evaluation of the primary humoral immune response to sheep erythrocytes (SRBC), 5×10^6 to 10^7 murine spleen cells were cultured in 1.0 milliliter of 5% FCS-containing medium for 4 or 5 days in the presence and absence of immunogen. Cells were incubated in culture trays (Costar, Cambridge, Mass.) at 37° C. in a humidified atmosphere of 10% CO2 in air using tissue culture boxes (CBS Scientific, Del Mar, Calif.) that were rocked at a frequency of 7 cycles per minute. Pooled SRBC are available from the Colorado Serum Co., Denver Colo.
as §3

murine spleen cells = experiment: Mitogenicity: [3H]TdR uptake, murine system; type: cell-based, mouse; settings: Table 4
From the text: ^1 Mitogenicity measured by the uptake of [^3 H]TdR
(tritiumlabeled thymidine deoxyribonucleoside) as determined by measuring
counts per minute (cpm) per cell culture using the conditions discussed i

## C=CCn1c(=O)n([C@@H]2O[C@H](CO)[C@@H](O)[C@H]2O)c2nc(N)[nH]c(=O)c21 [7a8oGuo, 7-(2-Propenyl)-8-oxoguanosine]
CBA/N mouse spleen cells
  concentration giving the similar PFC/culture values: 30 µM
[1]; Table 7, first group, person a
  Peak Direct anti-SRBC PFC/Culture: 3038 ± 288 PFC/Culture
[1]; Table 7, first group, person b
  Peak Direct anti-SRBC PFC/Culture: 9250 ± 1010 PFC/Culture
[1]; Table 7, first group, person c
  Peak Direct anti-SRBC PFC/Culture: 4831 ± 270 PFC/Culture
[1]; Table 7, second group, person a
  Peak Direct anti-SRBC PFC/Culture: 477 PFC/Culture
[1]; Table 7, second group, person b
  Peak Direct anti-SRBC PFC/Culture: 10,313 PFC/Culture
[1]; Table 7, second group, person c
  Peak Direct anti-SRBC PFC/Culture: 4413 PFC/Culture
[1]; Table 9, human, * = single study
  Average 1 Log Plaque Values: 22,640 ± 4187 per micromole
[1]; human system (Table 3)
  peak adjuvanticity values greater as compared to 7m8oGuo: about 100%
[2]
  concentration giving the similar PFC/culture values: 10^-5 M
physchem
  solubility in human urine, in words: about a three-fold greater solubility than did 7m8oGuo
physchem; human, urine
  solubility at 18 h: 16.3 mg/mL (≈ 48 mM)
[3]; 10^-4 M
  [3H] TdR Uptake: 10,000 ± 800 counts per minute
[3]; 10^-5 M
  [3H] TdR Uptake: 8000 ± 300 counts per minute
[3]; 10^-6 M
  [3H] TdR Uptake: 8300 ± 300 counts per minute
[4]; Table 5, murine system, at peak concentration
  Peak Direct anti-SRBC PFC/Culture: 1827 PFC/Culture
[4]; Table 8, 1 × 10^-5 M
  Direct Anti-SRBC PFC/Culture: 1387 PFC/Culture
[4]; Table 9, murine, * = single study
  Average 1 Log Plaque Values: 98,237 ± 42,041 per micromole
Murine spleen cells; 3 × 10^-4 M
  [3H] TdR Uptake: 59,150 ± 420 cpm/culture
Murine spleen cells; 10^-3 M
  [3H] TdR Uptake: 51,340 ± 1050 cpm/culture
Murine spleen cells; 10^-4 M
  [3H] TdR Uptake: 39,830 ± 780 cpm/culture
